Data published in ChEMBL document CHEMBL5584280, “Optimization of Novel Pyrido-pyridazinone Derivatives as FER Tyrosine Kinase Inhibitors, Leading to the Potent DS08701581” (ACS Med Chem Lett, 2024).
Converted amounts (≈) assume the structure as drawn. Blank lines part the entries; values can stand above or below the compound they belong to.

Assays:
BaF3 [1] = assay: Inhibition of cell viability in mouse BaF3 cells expressing FER incubated for 3 days by Cell Titer Glo assay; format: functional; conditions: BaF3, 72 h, time 3 day
BaF3 [2] = assay: Inhibition of cell viability in mouse BaF3 cells incubated for 3 days by Cell Titer Glo assay; format: functional; conditions: BaF3, 72 h, time 3 day
[3] = target: Tyrosine-protein kinase Fer (Homo sapiens, UniProt P16591); assay: Inhibition of N-terminal His-tagged recombinant human FER using FL-Peptide22 as substrate incubated for 90 mins in presence of ATP
[4] = Metabolic stability in CD-1 mouse liver microsomes assessed as compound remaining at 1 uM incubated for 30 mins by LC-MS/MS analysis; format: ADME, Microsome; conditions: read-out: Stability
[5] = Solubility of compound in buffer at pH 6.8 incubated for 4 hrs by HPLC-UV analysis; format: physicochemical
[6] = Solubility of compound in FaSSIF incubated for 4 hrs by HPLC-UV analysis; format: ADME
[7] = Protein binding in BALB/c mouse serum at 10 ug/ml incubated for 4 hrs by equilibrium dialysis; format: ADME, cell-free; conditions: at 10 µg/mL, read-out: PB (converted)
[8] = Permeability co-efficient of compound at 5 uM incubated for 4 hrs by PAMPA; format: ADME; conditions: read-out: Peff
[9] = Total plasma clearance in BALB/cAnNCrlCrlj mouse at 1 mg/kg, iv; format: ADME, organism-based
[10] = AUC in BALB/cAnNCrlCrlj mouse at 10 mg/kg, po; format: ADME, organism-based; conditions: in vivo
[11] = Cmax in BALB/cAnNCrlCrlj mouse at 10 mg/kg, po; format: ADME, organism-based; conditions: in vivo
[12] = Oral bioavailability in BALB/cAnNCrlCrlj mouse at 10 mg/kg; format: ADME, organism-based; conditions: in vivo
[13] = target: ALK tyrosine kinase receptor (Homo sapiens) (UniProt Q9UM73); assay: Inhibition of ALK (unknown origin) at 200 nM in presence of ATP by kinase profiling analysis relative to control
[14] = target: Receptor-type tyrosine-protein kinase FLT3 (Homo sapiens) (UniProt P36888); assay: Inhibition of FLT3 (unknown origin) at 200 nM in presence of ATP by kinase profiling analysis relative to control
[15] = target: Protein-tyrosine kinase 2-beta (Homo sapiens) (UniProt Q14289); assay: Inhibition of PTK2B (unknown origin) at 200 nM in presence of ATP by kinase profiling analysis relative to control
[16] = target: Tyrosine-protein kinase SYK (Homo sapiens) (UniProt P43405); assay: Inhibition of SYK (unknown origin) at 200 nM in presence of ATP by kinase profiling analysis relative to control
[17] = target: Serine/threonine-protein kinase Chk2 (Homo sapiens) (UniProt O96017); assay: Inhibition of CHEK2 (unknown origin) at 200 nM in presence of ATP by kinase profiling analysis relative to control
[18] = target: T1, Testis-specific serine/threonine-protein kinase 1 (Homo sapiens) (UniProt Q9BXA7); assay: Inhibition of TSSK1B (unknown origin) at 200 nM in presence of ATP by kinase profiling analysis relative to control
T1 sequence (whole entry): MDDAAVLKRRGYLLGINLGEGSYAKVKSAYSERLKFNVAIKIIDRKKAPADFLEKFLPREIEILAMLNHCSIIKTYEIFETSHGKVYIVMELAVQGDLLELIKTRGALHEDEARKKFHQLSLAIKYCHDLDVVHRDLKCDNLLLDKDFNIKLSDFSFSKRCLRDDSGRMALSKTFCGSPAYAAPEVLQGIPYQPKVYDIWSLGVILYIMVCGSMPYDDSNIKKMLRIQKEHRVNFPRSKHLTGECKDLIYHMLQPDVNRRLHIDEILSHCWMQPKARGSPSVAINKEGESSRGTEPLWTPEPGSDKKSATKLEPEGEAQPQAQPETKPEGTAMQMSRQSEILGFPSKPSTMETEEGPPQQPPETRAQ

[19] = target: Macrophage colony-stimulating factor 1 receptor (Homo sapiens) (UniProt P07333); assay: Inhibition of CSF1R (unknown origin) at 200 nM in presence of ATP by kinase profiling analysis relative to control
[20] = target: Mast/stem cell growth factor receptor Kit (Homo sapiens) (UniProt P10721); assay: Inhibition of KIT (unknown origin) at 200 nM in presence of ATP by kinase profiling analysis relative to control
[21] = target: Proto-oncogene tyrosine-protein kinase ROS (Homo sapiens) (UniProt P08922); assay: Inhibition of ROS1 (unknown origin) at 200 nM in presence of ATP by kinase profiling analysis relative to control
Homo sapiens = organism: Homo sapiens; assay: Inhibition of NTRK1 (unknown origin) at 200 nM in presence of ATP by kinase profiling analysis relative to control
[22] = target: Cyclin-dependent kinase 2 (Homo sapiens) (UniProt P24941); assay: Inhibition of CDK2 (unknown origin) at 200 nM in presence of ATP by kinase profiling analysis relative to control
[23] = target: Mitogen-activated protein kinase kinase kinase kinase 4 (Homo sapiens) (UniProt O95819); assay: Inhibition of MAP4K4 (unknown origin) at 200 nM in presence of ATP by kinase profiling analysis relative to control
[24] = Toxicity in BALB/cAJcl-nu/nu mouse xenografted with […] mouse BaF3 cells expressing FER at 100 mg/kg, po qd for 10 days; format: organism-based; conditions: in vivo, 240 h, time 10 day
[25] = target: Leukocyte tyrosine kinase receptor (Homo sapiens) (UniProt P29376); assay: Inhibition of LTK (unknown origin) at 200 nM in presence of ATP by kinase profiling analysis relative to control
BaF3 [26] = assay: Antitumor activity against […] mouse BaF3 cells expressing FER xenografted in BALB/cAJcl-nu/nu mouse administered orally once a day for 4 days; format: functional, cell-based; conditions: dose 6.25-100 mg/kg, route po, time 4.0 day
[27] = Toxicity in BALB/cAJcl-nu/nu mouse xenografted with […] mouse BaF3 cells expressing FER at 6.25 to 100 mg/kg, po qd for 10 days; format: organism-based; conditions: in vivo, 240 h, dose 6.25-100 mg/kg, time 10 day

Chain of Serine/threonine-protein kinase Chk2 (Homo sapiens) (O96017 whole entry): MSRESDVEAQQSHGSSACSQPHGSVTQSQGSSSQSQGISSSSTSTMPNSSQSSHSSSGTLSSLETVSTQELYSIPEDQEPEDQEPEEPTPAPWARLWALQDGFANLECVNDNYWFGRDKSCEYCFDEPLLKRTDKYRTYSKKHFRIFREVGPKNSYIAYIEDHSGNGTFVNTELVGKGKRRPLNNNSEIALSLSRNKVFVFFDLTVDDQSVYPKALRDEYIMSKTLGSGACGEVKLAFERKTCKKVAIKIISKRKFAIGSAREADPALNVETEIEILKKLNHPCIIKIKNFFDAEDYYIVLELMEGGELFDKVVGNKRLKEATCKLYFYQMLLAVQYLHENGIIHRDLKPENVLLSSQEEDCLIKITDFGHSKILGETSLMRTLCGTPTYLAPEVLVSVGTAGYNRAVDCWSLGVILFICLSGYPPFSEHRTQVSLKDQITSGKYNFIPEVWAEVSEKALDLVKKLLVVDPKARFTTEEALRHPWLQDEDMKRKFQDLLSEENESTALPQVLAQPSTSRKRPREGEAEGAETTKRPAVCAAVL
Chain of ALK tyrosine kinase receptor (Homo sapiens) (Q9UM73 19-1620 limits assumed): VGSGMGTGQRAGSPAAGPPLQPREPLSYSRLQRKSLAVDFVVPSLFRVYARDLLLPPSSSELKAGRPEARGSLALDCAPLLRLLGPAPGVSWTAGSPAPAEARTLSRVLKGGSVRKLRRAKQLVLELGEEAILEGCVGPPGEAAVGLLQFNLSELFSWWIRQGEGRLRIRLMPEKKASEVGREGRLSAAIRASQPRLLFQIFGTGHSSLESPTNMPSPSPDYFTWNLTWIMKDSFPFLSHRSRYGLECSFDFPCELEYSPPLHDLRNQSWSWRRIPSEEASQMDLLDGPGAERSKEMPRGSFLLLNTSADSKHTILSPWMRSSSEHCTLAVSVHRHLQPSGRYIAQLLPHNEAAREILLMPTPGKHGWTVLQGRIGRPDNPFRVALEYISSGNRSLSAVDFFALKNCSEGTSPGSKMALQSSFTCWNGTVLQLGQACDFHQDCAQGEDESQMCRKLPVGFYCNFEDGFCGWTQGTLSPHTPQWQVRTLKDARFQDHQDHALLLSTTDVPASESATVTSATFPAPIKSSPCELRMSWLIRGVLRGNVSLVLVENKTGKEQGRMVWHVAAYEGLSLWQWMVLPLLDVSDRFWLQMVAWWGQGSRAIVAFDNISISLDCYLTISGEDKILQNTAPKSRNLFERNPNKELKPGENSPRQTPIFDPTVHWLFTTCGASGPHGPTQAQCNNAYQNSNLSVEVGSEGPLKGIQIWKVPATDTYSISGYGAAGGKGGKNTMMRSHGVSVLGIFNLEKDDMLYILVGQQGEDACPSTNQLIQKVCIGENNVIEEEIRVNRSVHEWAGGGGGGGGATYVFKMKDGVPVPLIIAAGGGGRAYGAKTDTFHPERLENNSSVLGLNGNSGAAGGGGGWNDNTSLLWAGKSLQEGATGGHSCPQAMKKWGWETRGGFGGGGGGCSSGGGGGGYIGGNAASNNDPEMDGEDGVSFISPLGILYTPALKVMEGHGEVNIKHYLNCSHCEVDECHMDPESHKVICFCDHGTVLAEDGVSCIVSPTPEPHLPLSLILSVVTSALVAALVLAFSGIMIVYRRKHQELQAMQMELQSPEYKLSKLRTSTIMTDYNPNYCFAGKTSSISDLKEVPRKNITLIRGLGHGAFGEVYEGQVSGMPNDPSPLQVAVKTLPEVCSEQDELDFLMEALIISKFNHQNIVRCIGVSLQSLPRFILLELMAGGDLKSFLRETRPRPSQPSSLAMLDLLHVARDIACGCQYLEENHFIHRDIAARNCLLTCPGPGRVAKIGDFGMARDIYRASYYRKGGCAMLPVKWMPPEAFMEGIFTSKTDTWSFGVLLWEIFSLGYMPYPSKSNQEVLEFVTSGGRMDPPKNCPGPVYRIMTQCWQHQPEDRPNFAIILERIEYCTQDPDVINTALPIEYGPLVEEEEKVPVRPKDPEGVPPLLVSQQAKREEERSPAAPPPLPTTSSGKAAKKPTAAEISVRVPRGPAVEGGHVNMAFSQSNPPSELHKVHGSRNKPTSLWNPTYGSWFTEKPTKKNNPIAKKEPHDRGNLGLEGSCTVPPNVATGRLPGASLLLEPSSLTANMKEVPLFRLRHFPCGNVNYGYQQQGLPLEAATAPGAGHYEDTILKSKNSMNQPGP
Chain of Protein-tyrosine kinase 2-beta (Homo sapiens) (Q14289 whole entry, looked up): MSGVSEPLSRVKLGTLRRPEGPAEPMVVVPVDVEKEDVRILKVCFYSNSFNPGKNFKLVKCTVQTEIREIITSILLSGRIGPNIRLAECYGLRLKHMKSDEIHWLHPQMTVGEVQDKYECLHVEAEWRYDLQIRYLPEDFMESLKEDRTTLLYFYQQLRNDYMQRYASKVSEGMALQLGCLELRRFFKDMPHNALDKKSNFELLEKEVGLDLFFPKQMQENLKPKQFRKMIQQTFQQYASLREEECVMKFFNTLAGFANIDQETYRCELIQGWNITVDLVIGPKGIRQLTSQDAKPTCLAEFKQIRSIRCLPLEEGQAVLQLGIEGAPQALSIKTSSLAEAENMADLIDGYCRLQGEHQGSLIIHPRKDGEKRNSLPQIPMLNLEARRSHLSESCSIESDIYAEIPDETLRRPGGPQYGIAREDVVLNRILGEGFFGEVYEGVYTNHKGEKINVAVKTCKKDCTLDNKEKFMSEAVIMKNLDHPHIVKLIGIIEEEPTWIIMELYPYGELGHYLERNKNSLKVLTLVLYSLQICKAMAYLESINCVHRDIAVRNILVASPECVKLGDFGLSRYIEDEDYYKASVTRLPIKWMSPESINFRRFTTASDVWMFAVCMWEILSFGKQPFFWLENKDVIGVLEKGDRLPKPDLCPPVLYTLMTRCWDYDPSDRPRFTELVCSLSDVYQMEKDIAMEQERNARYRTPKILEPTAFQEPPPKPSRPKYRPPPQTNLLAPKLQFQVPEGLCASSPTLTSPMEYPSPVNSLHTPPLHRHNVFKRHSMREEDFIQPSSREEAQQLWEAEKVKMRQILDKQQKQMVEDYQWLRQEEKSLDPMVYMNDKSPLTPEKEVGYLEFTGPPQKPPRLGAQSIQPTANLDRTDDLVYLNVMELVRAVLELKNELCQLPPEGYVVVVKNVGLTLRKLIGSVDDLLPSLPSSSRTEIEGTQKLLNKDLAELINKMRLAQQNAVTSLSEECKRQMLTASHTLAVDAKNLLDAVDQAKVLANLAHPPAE
Chain of Receptor-type tyrosine-protein kinase FLT3 (Homo sapiens) (P36888 whole entry): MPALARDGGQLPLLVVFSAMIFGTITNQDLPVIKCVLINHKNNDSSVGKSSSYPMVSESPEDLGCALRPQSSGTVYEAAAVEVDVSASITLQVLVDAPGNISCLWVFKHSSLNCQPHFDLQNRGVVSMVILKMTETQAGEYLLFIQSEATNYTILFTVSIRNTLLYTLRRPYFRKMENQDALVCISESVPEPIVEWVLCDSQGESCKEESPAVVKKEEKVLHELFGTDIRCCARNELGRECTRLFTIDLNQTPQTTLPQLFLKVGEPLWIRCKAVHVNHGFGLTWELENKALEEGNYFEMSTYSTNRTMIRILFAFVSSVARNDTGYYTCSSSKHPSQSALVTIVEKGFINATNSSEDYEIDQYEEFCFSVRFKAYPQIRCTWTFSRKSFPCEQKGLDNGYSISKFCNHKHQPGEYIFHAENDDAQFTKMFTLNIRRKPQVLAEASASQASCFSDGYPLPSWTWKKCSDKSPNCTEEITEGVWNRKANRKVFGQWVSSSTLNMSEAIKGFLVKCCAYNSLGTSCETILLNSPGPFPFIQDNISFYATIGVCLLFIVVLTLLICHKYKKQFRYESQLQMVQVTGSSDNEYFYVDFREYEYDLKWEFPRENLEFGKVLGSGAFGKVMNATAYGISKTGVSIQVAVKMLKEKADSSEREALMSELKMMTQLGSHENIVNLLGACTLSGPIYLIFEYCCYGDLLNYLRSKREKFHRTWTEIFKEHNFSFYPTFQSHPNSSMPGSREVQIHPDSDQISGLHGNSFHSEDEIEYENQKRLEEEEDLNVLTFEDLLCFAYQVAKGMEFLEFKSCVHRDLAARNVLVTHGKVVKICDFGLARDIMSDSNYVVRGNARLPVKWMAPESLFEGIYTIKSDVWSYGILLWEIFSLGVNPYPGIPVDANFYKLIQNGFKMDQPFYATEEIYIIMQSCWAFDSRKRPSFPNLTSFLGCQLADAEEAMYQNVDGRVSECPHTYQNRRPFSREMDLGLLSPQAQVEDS
Chain of Leukocyte tyrosine kinase receptor (Homo sapiens) (P29376 whole entry): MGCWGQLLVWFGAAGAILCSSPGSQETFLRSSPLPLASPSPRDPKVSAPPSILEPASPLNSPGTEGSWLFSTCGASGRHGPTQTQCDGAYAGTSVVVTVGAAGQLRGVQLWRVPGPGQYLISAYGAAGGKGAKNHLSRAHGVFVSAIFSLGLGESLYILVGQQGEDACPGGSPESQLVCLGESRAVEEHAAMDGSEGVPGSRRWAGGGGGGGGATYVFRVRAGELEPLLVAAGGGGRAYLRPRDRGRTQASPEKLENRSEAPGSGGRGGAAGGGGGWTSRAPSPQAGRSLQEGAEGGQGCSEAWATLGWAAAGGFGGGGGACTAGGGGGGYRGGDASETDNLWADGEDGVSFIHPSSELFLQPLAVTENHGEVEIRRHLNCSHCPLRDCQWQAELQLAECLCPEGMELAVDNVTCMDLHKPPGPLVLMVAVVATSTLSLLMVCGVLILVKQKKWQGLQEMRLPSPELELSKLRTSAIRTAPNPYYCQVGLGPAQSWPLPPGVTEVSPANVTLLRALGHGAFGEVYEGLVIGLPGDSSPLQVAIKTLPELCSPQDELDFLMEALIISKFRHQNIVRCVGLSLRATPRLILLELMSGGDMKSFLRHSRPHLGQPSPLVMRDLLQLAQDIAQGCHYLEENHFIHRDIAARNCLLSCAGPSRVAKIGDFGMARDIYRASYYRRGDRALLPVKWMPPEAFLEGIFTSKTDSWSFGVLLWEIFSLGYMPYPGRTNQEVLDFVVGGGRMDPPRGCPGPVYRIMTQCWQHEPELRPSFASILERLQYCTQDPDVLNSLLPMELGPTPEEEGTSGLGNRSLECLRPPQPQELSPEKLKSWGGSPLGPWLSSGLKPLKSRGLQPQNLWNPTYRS

GI50 (BaF3 [1]): 4.7 nM | GI50 (BaF3 [2]): 1200 nM
SMILES: N[C@H]1CCCC[C@H]1Nc1nc(Nc2cccc(N3CCOCC3)c2)c2c(=O)[nH]ncc2c1F

GI50 (BaF3 [1]): 0.36 nM | GI50 (BaF3 [2]): 362 nM
SMILES: N#Cc1c(N[C@@H]2CCCC[C@@H]2N)nc(Nc2cccc(N3CC4(COC4)C3)c2)c2c(=O)[nH]ncc12

GI50 (BaF3 [1]): 1.2 nM | GI50 (BaF3 [2]): 310 nM
SMILES: N#Cc1c(N[C@@H]2CCCC[C@@H]2N)nc(Nc2cccc(N3CCOCC3)c2)c2c(=O)[nH]ncc12

GI50 (BaF3 [1]): 0.67 nM | GI50 (BaF3 [2]): 1000 nM | remaining at 0.5 h, 1 µM [4]: 85% | solubility at 4 h [5]: 6.7 µg/mL (≈ 13.7 µM) | solubility at 4 h [6]: 30 µg/mL (≈ 61.4 µM) | fraction unbound at 4 h, 10 ug/ml [7]: 0.03 | Papp at 4 h, 5 µM [8]: > 50 ×10⁻⁶ cm/s | clearance [9]: 13 mL/min/kg | AUC [10]: 8200 ng·h/mL | Cmax [11]: 630 ng/mL | bioavailability [12]: 65% | inhibition [13]: > 90% | inhibition [14]: > 90% | inhibition [15]: > 90% | inhibition [16]: > 90% | inhibition [17]: > 90% | inhibition [18]: > 90% | inhibition [25]: > 90%
SMILES: C[C@@H]1CN(c2cccc(Nc3nc(N[C@@H]4CCCC[C@@H]4N)c(C#N)c4cn[nH]c(=O)c34)c2)C[C@H](C)O1
Activity (BaF3 [26]): Dose-Dependent Effect | Activity [27]: Non-Toxic

Continued, compound first:

SMILES: Cc1cccc(Nc2nc(NC3CCCCC3N)c(F)c3cn[nH]c(=O)c23)c1 (racemic)
GI50 (BaF3 [1]): 30 nM | GI50 (BaF3 [2]): 1230 nM

SMILES: Cn1cc(Nc2nc(NC3CCCCC3N)c(F)c3cn[nH]c(=O)c23)cn1 (racemic)
GI50 (BaF3 [1]): 57 nM | GI50 (BaF3 [2]): 340 nM

SMILES: CCOc1cccc(Nc2nc(NC3CCCCC3N)c(F)c3cn[nH]c(=O)c23)c1 (racemic)
GI50 (BaF3 [1]): 50 nM | GI50 (BaF3 [2]): 1600 nM

SMILES: Cc1cccc(Nc2nc(NC3CCCCC3N)c(C#N)c3cn[nH]c(=O)c23)c1 (centres undefined)
IC50 [3]: 0.49 nM | GI50 (BaF3 [1]): 1.9 nM | GI50 (BaF3 [2]): 220 nM | remaining at 0.5 h, 1 µM [4]: 96% | solubility at 4 h [5]: 0.9 µg/mL (≈ 2.31 µM) | solubility at 4 h [6]: 2.1 µg/mL (≈ 5.39 µM) | fraction unbound at 4 h, 10 ug/ml [7]: 0.01 | Papp at 4 h, 5 µM [8]: > 50 ×10⁻⁶ cm/s | clearance [9]: 12 mL/min/kg | AUC [10]: 4800 ng·h/mL | Cmax [11]: 360 ng/mL | bioavailability [12]: 34% | inhibition [13]: > 90% | inhibition [14]: > 90% | inhibition [15]: > 90% | inhibition [16]: > 90% | inhibition [17]: > 90% | inhibition [18]: > 90% | inhibition [19]: > 90% | inhibition [20]: > 90% | inhibition [21]: > 90% | inhibition (Homo sapiens): > 90% | inhibition [22]: > 90% | inhibition [23]: > 90% | Activity [24]: Toxic

SMILES: CN1CCN(c2cccc(Nc3nc(NC4CCCCC4N)c(F)c4cn[nH]c(=O)c34)c2)CC1 (racemic)
GI50 (BaF3 [1]): 76 nM | GI50 (BaF3 [2]): 630 nM
